Source: patent US20200315996A1 (Board of Trustees, Southern Illinois University, priority 2016, published 2020)

How the values were obtained:
PGR = experiment: Immunohistochemistry of endometriotic lesions, PGR; type: in vivo, mice; conditions: 3 weeks; for % of PGR positive cells/total cells/0.007 mm^2, Stroma: control 47.2 ± 4.0; for % of PGR positive cells/total cells/0.007 mm^2, Epithelium: control 76.7 ± 7.0
Source text: (§1) The presence and location of different proteins in the tissues obtained from the recipient mice. Samples of uterine tissue were isolated from the recipient mice, fixed by standard histological methods, and embedded in paraffin. Thin sections (5 μm) of the paraffin-embedded tissues were screened with standard immunohistochemical methods using antibodies to identify the expression of in the uterine tissues.
(§2) Primary antibodies that recognized MKI67 (Ki67), PECAM1 (CD31), ESR1, PGR, p-CHUK (IKK), p-STAT3, NOS2 (iNOS) and PTGS2 (COX2), and Vectastain Elite ABC Kit (# PK-6101), Mouse on Mouse Basic Kit (# BMK-2202, Vector laboratories) or DyLight-conjugated secondary antibody (#711-516-152, Jackson ImmunoResearch Lab) were used to show the presence of the proteins in the tissues, which were examined under microscopes.
(§3) The primary antibodies used in these analyses were: anti-MKI67 (Ki67, 1:200 dilution, 550609, BD Biosciences), anti-PECAM1 (CD31, 1:100 dilution, ab28364, Abcam), anti-ESR1 (1:100 dilution, sc-542, Santa Cruz Biotechnology), anti-PGR (1:200 dilution, RB-9017-P0, Thermo Scientific), anti-p-CHUK (IKK, 1:150 dilution, 2697, Cell Signaling Technology), anti-p-STAT3 (1:50 dilution, 9145, Cell Signaling Technology), anti-NOS2 (iNOS, 1:50 dilution, 610333, BD Biosciences) and anti-PTGS2 (COX2, 1:50 dilution, RM-9121, Thermo Scientific).
(§4) The expression of MKI67, ESR1, PGR, p-CHUK, p-STAT3, NOS2 and PTGS2 proteins in uterine tissues, as determined by immunohistochemical analysis of uterine tissue sections, was semiquantitatively analyzed. Levels of apoptosis were analyzed by TUNEL assay and also semiquantitatively analyzed. Histological sections were obtained from 4 different lesions. For each section, three different areas measuring 0.007 mm^2 were chosen. In each of those areas, the total number of epithelial or stromal cells was counted, as was the number of cells that tested positive for expressing MKI67 (a marker of cellular proliferation), steroid receptors ESR1 and PGR, and inflammatory signaling molecules p-CHUK, p-STAT3, NOS2 and PTGS2 proteins.

PTGS2 (COX2) = experiment: Immunohistochemistry of endometriotic lesions, PTGS2; type: in vivo, mice; conditions: 3 weeks; for % of PTGS2 positive cells/total cells/0.007 mm^2, Stroma: control 20.1 ± 2.2; for % of PTGS2 positive cells/total cells/0.007 mm^2, Epithelium: control 98.4 ± 0.5
Source text: as §1, §2, §3, §4
The expression of PTGS2 (COX2), an inflammatory molecule […] by NFκB and STAT3 signaling, was examined with a primary antibody against PTGS2.

PECAM1 (CD31) = experiment: Immunohistochemistry of endometriotic lesions, PECAM1 (endothelial cells); type: in vivo, mice; conditions: 3 weeks, control 38.3 ± 3.6
Source text: as §1
as §2, with “microscopes. […]” for “microscopes.”
The expression of PECAM1, a marker of endothelial cells, was semiquantitatively analyzed using areas of 0.02 mm^2 (3 different areas counted from each section, with sections obtained from 4 different lesions), and semiquantitatively analyzed.

endometriotic lesions [1] = experiment: Endometriotic lesions examined on PND 21 (Study 2); type: in vivo, mice; conditions: 200 mg/kg b.w./day; examined 3 weeks after the final dosage
Description: The sham surgery was performed following the same steps as the endometriosis surgery except that no donor tissues were implanted onto the peritoneal walls of those mice; only sutures were applied to the peritoneal walls. […] The recipient mice continued receiving oral daily niclosamide treatments until mouse pups were born, after which niclosamide treatment was discontinued. Three weeks after the pups were born, on postnatal day (PND) 21, the recipient mice were necropsied and the pups were weaned. For each mated mouse, the following parameters were measured and recorded: the time of the formation of the vaginal plug after mating (days); the length of time that the mated mouse gestated or was pregnant (days); the number of pups born to each mated mouse; and the size and volume of the endometriotic lesions harvested from the mice after necropsy. Tissues were harvested from the mice, including endometriotic lesions and peritoneal walls to analyze the expression of proteins and genes of interest.

recipient mice = experiment: General tolerability in recipient mice (Studies 1 and 2); type: in vivo
Source text: Uterine tissue pieces of B6-GFP mice (donor) were implanted into the peritoneal walls of recipient mice.
The recipient mice continued receiving oral daily niclosamide treatments until mouse pups were born, after which niclosamide treatment was discontinued. Three weeks after the pups were born, on postnatal day (PND) 21, the recipient mice were necropsied and the pups were weaned.

endometriotic lesions [2] = experiment: Mouse model of endometriosis, growth of implanted endometriotic lesions (Study 1); type: in vivo, mice; conditions: for lesion weight / lesion volume: 3 weeks; for lesion weight: controls 0.044±0.007 g; for lesion volume: controls 40.1±6.6 mm3; for total weight of lesions: controls 154.0±29.3 mg
Source text: An experimental mouse model of endometriosis was established adopting procedures described previously with some modification [Han, 2012; Hirata, 2005; Kulak, 2011; Pelch, 2012; Zhao, 2014]. Female, eight week old B6-GFP mice were used as donor mice. These mice are transgenic mice whose cells endogenously express a green fluorescent protein (GFP) which is detectable under fluorescent light. When implanted to a GFP-negative recipient mouse, tissue implants from GFP-positive donor mice can be distinguished from the tissues of the recipient mice. Ectopic GFP-positive lesions were microscopically examined to evaluate the implants for accurate growth and progression. Briefly, the uterine horns were removed from donor mice during the diestrus stage of the reproductive cycle. […] Then, the uterine pieces were maintained in warmed DMEM/F12 medium (#10-090, Corning). […] The recipient mice were selected during the diestrus stage and anesthetized. In each mouse, a longitudinal abdominal incision was made, and uterine pieces from donor mice were sutured to the right or left side of the peritoneal walls of each animal (implanting each 2-mm and 3-mm piece per side) using a 6-0 braided silk suture (# SUT-1073-11, Roboz). Then, the abdominal incision was closed with a 4-0 braided silk suture (# SUT-1073-31, Roboz). […] Uterine tissue pieces of B6-GFP mice (donor) were implanted into the peritoneal walls of recipient mice. […] The lesion volume was calculated according to the formula (L×W^2), where L is length and W is width [[…], 2007].

[3] = after 3 weeks of treatment, 100 or 200 mg/kg b.w./day oral

SMILES: O=C(Nc1ccc([N+](=O)[O-])cc1Cl)c1cc(Cl)ccc1O [niclosamide, 5-chloro-N-(2-chloro-4-nitrophenyl)-2-hydroxybenzamide]
- % of PGR positive cells/total cells/0.007 mm^2, Stroma (PGR; 100 mg/kg b.w./day oral): 58.1 ± 5.2%
- % of PGR positive cells/total cells/0.007 mm^2, Epithelium (PGR; 100 mg/kg b.w./day oral): 60.4 ± 10.7%
- % of PGR positive cells/total cells/0.007 mm^2, Stroma (PGR; 200 mg/kg b.w./day oral): 50.1 ± 6.9%
- % of PGR positive cells/total cells/0.007 mm^2, Epithelium (PGR; 200 mg/kg b.w./day oral): 69.9 ± 12.2%
- % of PTGS2 positive cells/total cells/0.007 mm^2, Stroma (PTGS2 (COX2); 100 mg/kg b.w./day oral): 20.3 ± 3.3%
- % of PTGS2 positive cells/total cells/0.007 mm^2, Epithelium (PTGS2 (COX2); 100 mg/kg b.w./day oral): 98.2 ± 0.5%
- % of PTGS2 positive cells/total cells/0.007 mm^2, Stroma (PTGS2 (COX2); 200 mg/kg b.w./day oral): 22.8 ± 2.0%
- % of PTGS2 positive cells/total cells/0.007 mm^2, Epithelium (PTGS2 (COX2); 200 mg/kg b.w./day oral): 98.7 ± 0.7%
- Cell number of PECAM1 positive cells/0.02 mm^2 (PECAM1 (CD31); 100 mg/kg b.w./day oral): 34.7 ± 3.6 cells/0.02 mm^2
- Cell number of PECAM1 positive cells/0.02 mm^2 (PECAM1 (CD31); 200 mg/kg b.w./day oral): 32.7 ± 2.8 cells/0.02 mm^2
- lesion sizes on PND 21 (endometriotic lesions [1]): maintained the reduction of lesion sizes
- adverse effects including weight loss in recipient mice (recipient mice; [3]): no obvious adverse effects
- estrous cyclicity by vaginal cytology (recipient mice; [3]): observed in all mice
- adverse reactions, such as weight loss or changes in behavior in the recipient mice (recipient mice; daily 200 mg/kg b.w. for three (Study 1) to four weeks (Study 2)): did not cause any adverse reactions
- lesion weight (endometriotic lesions [2]; 100 mg/kg b.w./day oral): 0.023 ± 0.004 g
- lesion volume (endometriotic lesions [2]; 100 mg/kg b.w./day oral, no significant difference): 23.15±5.0 mm3
- lesion weight (endometriotic lesions [2]; 200 mg/kg b.w./day oral): 0.016 ± 0.003 g
- lesion volume (endometriotic lesions [2]; 200 mg/kg b.w./day oral): 7.4±0.8 mm3
- number of lesions between treatment groups (endometriotic lesions [2]; oral 50, 100 or 200 mg/kg b.w. vs controls): did not differ
- total weight of lesions (endometriotic lesions [2]; oral niclosamide 50 mg/kg b.w., n=7): 114.9 ± 31.6 mg
- total weight of lesions (endometriotic lesions [2]; oral niclosamide 100 mg/kg b.w., n=9): 76.2 ± 18.3 mg
- total weight of lesions (endometriotic lesions [2]; oral niclosamide 200 mg/kg b.w., n=20): 44.9 ± 7.43 mg
